Assay results as given in patent US12310963B2, “Pyrazole derivatives and use thereof” (Tarapeutics Science Inc., priority 2019, dated 2025).

What was measured:
[1] = tested on: pulmonary arterial hypertension (PAH); test: Rat model of pulmonary arterial hypertension (PAH), monocrotaline-induced; type: in vivo; conditions: for mPAP, difference as compared with the vehicle group: p<0.001
Procedure: SCXK (SU) 2017-0001. These rats were fed with conventional pellet feeds (Jiangsu Xietong Bio. Co., Ltd.), and were raised in a clean animal room with 12h/12h light/dark cycle. The rats were fed with foods and drinking water on an ad libitum basis. The temperature was maintained at 20-26° C., and the relative humidity was 40-70%. 120 SD rats were divided into 24 cages with 5 rats per group. […] The animals were treated in strict accordance with animal ethics regulations throughout the experiment. According to the method described in “Pharmaceutical experimental animal models: Fabrication and application” and the Standard Operating Procedure for PAH Model Construction of Model Animal Center, rats were intraperitoneally injected with a solution of 1% monocrotaline (MCT, purchased from Sigma, U.S.A.) once at a dose of 35 mg/kg. On Day 7 after the first injection of MCT, MCT was injected again at a dose of 20 mg/kg. The rats in the normal control group were intraperitoneally injected with an equivalent amount of water as a blank solvent. The specific steps were as follows: After the rats in each of the cages were fasted for 8 hours, each of the rats was weighed and recorded for the basic body weight after fasting; based on the measured basic body weight for each of the rats, the amount of MCT required to be injected for each of the rats was calculated according to the modeling dose of 35 mg/kg; based on the amount of MCT required to be injected for each of the rats, the dose for injection of a 1% MCT solution was calculated; the rats were fixed in a holder and intraperitoneally injected with the 1% MCT solution at the calculated dose; the rats were returned to the cages for routine feeding after the injection. […] The blood gas analyzer was operated following the standard operation procedure. […] Each of the rats was administered by gavage once a day starting from the day of regrouping at Week 4. The rats in the negative control group were daily administered by gavage with an equal volume of methylcellulose as vehicle. The rats in each of the groups were administered by gavage for consecutive 4 weeks (i.e., 28 days). […] The rats were weighed after fasting overnight twice a week. The administration dosage was calculated based on the weighing results. […] After the rats were under anesthesia, the pulmonary arterial pressure and the right ventricular systolic pressure of rats were measured. […] The steps were as follows. A No. 3.5 umbilical vein catheter was connected to a system pressure transducer. A formulated solution of […] sodium (purchased from Sangon) was filled into the transducer and the catheter, and bubbles were discharged. The anesthetized rat was placed on a surgical anatomical plate that is adjustable in its temperature. The temperature of the plate was adjusted to be maintained at about 37° C. The rat was fixed in supine position. The neck skin was cut with scissors to the edge of the clavicle, followed by blunt dissection of subcutaneous tissues and muscles, exposing the right external jugular vein. The adipose tissue on the surface was removed with ophthalmic surgical scissors. The external jugular vein was ligated at the […] surgical thread, and a loose knot was made at the proximal end for reserve. The external jugular vein was gently lifted with ophthalmic tweezers and cut with ophthalmic scissors to make a “V” opening. The catheter was quickly inserted, and the loose knot at the proximal end was tightened slightly to prevent bleeding. […] The catheter was further inserted slowly forward, and entered into the pulmonary artery at about 5 cm. […] The blood was transferred into an anticoagulation tube, and loaded in a blood gas analyzer to determine the indexes of partial pressure of oxygen (pO2), partial pressure of carbon dioxide (pCO2) and blood oxygen saturation (SaO2) in the blood.

[2] = tested on: BaF3-TEL-VEGFR2 (stably expressing VEGFR2 kinase); test: Growth of BaF3-TEL-VEGFR2 cells, Cell Titer-Glo, 72 h; type: cell-based, mouse
From the text: (§1) In this example, mouse primary B cell BaF3 (purchased from ATCC, U.S.A.) was used. In addition, in this example, mouse BaF3-tel-PDGFRα (stably expressing PDGFRα kinase), mouse BaF3-tel-PDGFRβ (stably expressing PDGFRβ kinase), BaF3-P210 (stably expressing ABL kinase), BaF3-P210-T315I (stably expressing ABL-T315I kinase), BaF3-FL-BRAF-V600E (stably expressing BRAF-V600E kinase), BaF3-TEL-cKIT (stably expressing cKIT kinase), BaF3-TEL-VEGFR2 (stably expressing VEGFR2 kinase), BaF3-TEL-FGFR2 (stably expressing FGFR2 kinase) were also used. The above-mentioned cell trains were all constructed in our laboratory by the method as follows. The sequences of human BCR-ABL (P210 or P210/T315I mutated), full-length BRAF-V600E, cKIT, VEGFR2, FGFR2, PDGFRα, PDGFRβ kinase region were amplified respectively via PCR, and inserted respectively into a MSCV-Puro vector (purchased from Clontech) having a N-terminal TEL fragment and/or NPM fragment and/or TPR fragment, and stably transferred into mouse BaF3 cells by the retroviral method, and the growth factor IL-3 was removed. Eventually, cell lines which are transferred into proteins depending on PDGFRα, PDGFRβ were obtained.
(§2) In this example, solutions of the test compound at different concentrations (0.000508 μM, 0.00152 μM, 0.00457 μM, 0.0137 μM, 0.0411 μM, 0.123 μM, 0.370 μM, 1.11 μM, 3.33 μM, 10 μM) were added to the above cells. […]

[3] = tested on: BaF3-TEL-FGFR2 (stably expressing FGFR2 kinase); test: Growth of BaF3-TEL-FGFR2 cells, Cell Titer-Glo, 72 h; type: cell-based, mouse
From the text: as §1, §2

[4] = tested on: BaF3-TEL-cKIT (stably expressing cKIT kinase); test: Growth of BaF3-TEL-cKIT cells, Cell Titer-Glo, 72 h; type: cell-based, mouse
From the text: as §1, §2

BaF3 = test: Growth of parental BaF3 cells, Cell Titer-Glo, 72 h; type: cell-based; conditions: Mus musculus
From the text: as §1
In this example, solutions of the test compound at different concentrations (0.000508 μM, 0.00152 μM, 0.00457 μM, 0.0137 μM, 0.0411 μM, 0.123 μM, 0.370 μM, 1.11 μM, 3.33 μM, 10 μM) were added to the above cells. The cells were incubated for 72 hours.

[5] = 45 mg/kg by gavage, 28 days, P<0.001
[6] = high-dose group (45 mg/kg), P<0.001
[7] = medium-dose group (30 mg/kg), P<0.01

GI50 ([2]; BaF3-TEL-VEGFR2 cells, 72 hours): 4 µM
GI50 ([3]; BaF3-TEL-FGFR2 cells, 72 hours): 3.26 µM
GI50 ([4]; BaF3-TEL-cKIT cells, 72 hours): 5.34 µM
Structure (SMILES): Cc1ccc(NC(=O)c2cccc(C(F)(F)F)n2)cc1-n1cc(-c2cncc(N3CCN(C)CC3)c2)cn1 [Compound 1, N-(4-methyl-3-(4-(5-(4-methylpiperazin-1-yl)pyridin-3-yl)-1H-pyrazol-1-yl)phenyl)-6-(trifluoromethyl)picolinamide]
mPAP, difference as compared with the vehicle group ([1]; 15 mg/kg by gavage, 28 days): extremely significantly different
RVSP, difference as compared with the groups of imatinib and bosentan ([1]; 30 mg/kg by gavage, 28 days): no significant difference
mPAP, difference as compared with the groups of bosentan and imatinib ([1]; 30 mg/kg by gavage, 28 days): no significant difference
RVSP, difference as compared with the vehicle group ([1]; 30 mg/kg by gavage, 28 days, P<0.001): extremely significantly different
mPAP, difference as compared with the vehicle group ([1]; 30 mg/kg by gavage, 28 days): extremely significantly different
RVI, difference as compared with the groups of imatinib and bosentan ([1]; 45 mg/kg by gavage, 28 days): no significant difference
RVSP, difference as compared with the groups of imatinib and bosentan ([1]; 45 mg/kg by gavage, 28 days): no significant difference
mPAP, difference as compared with the groups of bosentan and imatinib ([1]; 45 mg/kg by gavage, 28 days): no significant difference
RVI, difference as compared with the vehicle group [1, 5]: extremely significantly different
RVSP, difference as compared with the vehicle group [1, 5]: extremely significantly different
mPAP, difference as compared with the vehicle group ([1]; 45 mg/kg by gavage, 28 days): extremely significantly different
partial pressure of carbon dioxide (pCO2), difference as compared with the vehicle group [1, 6]: extremely significantly different
partial pressure of oxygen (pO2), difference as compared with the vehicle group [1, 6]: extremely significantly different
blood oxygen saturation (SaO2), difference as compared with the vehicle group ([1]; high-dose group (45 mg/kg), p<0.05): significantly different
RVI decrease as compared with the negative control group ([1]; high-dose group, 45 mg/kg by gavage, 28 days): 29.6%
RVI decrease as compared with the negative control group ([1]; low-dose group, 15 mg/kg by gavage, 28 days): 5.5%
partial pressure of carbon dioxide (pCO2), difference as compared with the vehicle group [1, 7]: extremely significantly different
partial pressure of oxygen (pO2), difference as compared with the vehicle group [1, 7]: extremely significantly different
RVI decrease as compared with the negative control group ([1]; medium-dose group, 30 mg/kg by gavage, 28 days): 9.4%
inhibitory effect against VEGFR2 (in words) ([2]; summary of Table 2): no inhibitory effect, or a relatively weak inhibitory effect
inhibitory effect against FGFR2 (in words) ([3]; summary of Table 2): no inhibitory effect, or a relatively weak inhibitory effect
inhibitory effect against cKIT (in words) ([4]; summary of Table 2): no inhibitory effect, or a relatively weak inhibitory effect
GI50 (BaF3): 4.08 µM
